Measurements: patent publication US6326177A, “Method and apparatus for intracellular electro-manipulation” (Eastern Virginia Medical School of the Medical College of …, priority 2000, dated 2001)
“Also recorded” adds a separate entry of the source.

Legend:
PMN = assay: Triton X-100 effect on PMN in the free calcein staining experiment; type: cell-based, human; details: 5 minutes
Description: Aliquots of an eosinophil-enriched leukocyte preparation (65% eosinophils) were exposed to 1 μM free calcein in HBSSw/o plus increasing amounts (0%-0.05%) Triton X-100 (5 minutes, 25° C.) and examined microscopically. […] Red eosinophil autofluorescence was readily visible and was also visible in all conditions up to and including the free calcein +0.01% Triton exposure. […] After Wright-Giemsa staining, these were recognized to be the residual nuclei of fully detergent-solubilized cells (pale green fluorescence) with associated eosinophilic granules corresponding exactly to the punctate areas of bright fluorescence (see FIG. 26).
Calcein-AM stained eosinophils trap free calcein in their cytoplasm after staining (left), and the intracellular free calcein is excluded from the eosinophil's large granules as shown on the left.

eosinophils = assay: Free calcein staining of eosinophil granules after Triton X-100 treatment (fluorescence and Wright-Giemsa microscopy); type: cell-based, human; details: 5 minutes
Description: BOTTOM ROW: Wright-Giemsa stained (above) and fluorescent (below) images of eosinophils treated with 1 μM free calcein+0.005% Triton X-100 for 5 minutes (left), eosinophils treated with 0.01% Triton X-100+1 μM free calcein (5 minutes) (center) and eosinophils incubated in 0.05% Triton X-100+1 μM free calcein for 5 minutes.
Free calcein is a highly fluorescent modified fluorescein with 6 negative and 2 positive charges that is membrane impermeant. In its methyl ester form, calcein-AM, it is non-fluorescent and membrane permeable. When used as a fluorescent stain for cells, calcein-AM passes through the surface membrane and is cleaved to free calcein+the methyl ester residue by intracellular esterase activities. This modification traps the free calcein in the cytoplasm of the cell, and retention of the free calcein is a common criterion for intactness of the surface membrane.

[1] = 0.001% Triton X-100 + 1 μM free calcein
[2] = 0.005% Triton X-100 + 1 μM free calcein

Row | Molecule | free calcein staining / detergent effect on PMN (PMN; [1]) | free calcein staining / detergent effect on PMN (PMN; [2]) | free calcein staining / detergent effect on eosinophils (eosinophils; [1]) | free calcein staining / detergent effect on eosinophils (eosinophils; [2]) | free calcein staining / detergent effect on eosinophils (eosinophils; 0.01% Triton X-100 + 1 μM free calcein) | free calcein staining / detergent effect on eosinophils (eosinophils; 0.05% Triton X-100 + 1 μM free calcein) | calcein staining of eosinophils exposed to free calcein without Triton (eosinophils; 1 μM free calcein in HBSSw/o, 0% Triton, 25° C.)
1 | Triton X-100 | stains the fine granules of a PMN showing obvious detergent effects | detergent solubilized PMN show very fine, fluorescent "calcein sand" staining patterns | free calcein continues to be excluded from eosinophils | the morphology of some eosinophils suggests partial detergent solubilization which is accompanied by bright free calcein staining of eosinophil granules | occasional eosinophils showed an isolated bright green granule within the eosinophil autofluorescence pattern; also recorded: all eosinophils show nuclear changes suggestive of detergent effect, and many contain 1-2 bright granules on a background of red autofluorescence | many discrete areas of pale green fluorescence with overlying, bright green punctate areas of fluorescence; also recorded: only eosinophil nuclear remnants are seen | 
2 | O=C(O)CN(CC(=O)O)Cc1cc2c(cc1O)Oc1cc(O)c(CN(CC(=O)O)CC(=O)O)cc1C21OC(=O)c2ccccc21 [free calcein] |  |  |  |  |  |  | no calcein staining; also recorded: incapable of staining eosinophil cytoplasm
